Assay results reported in US10105349B2, “Organic compounds” (INTRA-CELLULAR THERAPIES, INC., priority 2014, dated 2018).
Like-named read-outs stand apart in the source and are kept apart here.

Experiments:
r-hPDE2A = r-hPDE2A (Homo sapiens (Human), UniProt O00408); assay: Measurement of PDE2 inhibition in vitro (IMAP fluorescence polarization); format: biochemical; conditions: FL-cAMP substrate, buffer supplemented with 1 μM cGMP
Procedure: Measurement of PDE2 Inhibition In Vitro
r-hPDE2A (Accession No. NM_002599, Homo sapiens phosphodiesterase 2A, cGMP-stimulated, transcript variant 1) A mammalian expression cloning vector with recombinant cDNA copy of the gene is purchased from Origene. Protein is expressed via transient transfection of HEK293 cells. The cells are harvested at 48 hours after transfection, washed once with TBS buffer (50 mM Tris-HCl, pH 7.5, 150 mM NaCl), then lysed by sonication in cold homogenization buffer (50 mM Tris-HCl, pH 7.5, 5 mM MgCl2, 1× protease inhibitor cocktail). The homogenate is centrifuged for 30 min at 15,000 g at 4° C. to obtain the soluble cytosolic fraction. The protein concentration of the cytosol is determined using BCA Protein Assay Kit (Pierce) with bovine serum albumin as a standard.
Assay: PDE2A is assayed with FL-cAMP as substrate. An enzyme titration is first performed to determine the working concentration of PDE. The concentration of the enzyme giving activity of 100 ΔmP in the absence of inhibitor is deemed an appropriate working concentration for PDE.
PDE enzyme is diluted in a standard reaction buffer (10 mM Tris-HCl pH 7.2, 10 mM MgCl2, 0.1% BSA, 0.05% NaN3) according to the titration curve. For PDE2 assay the reaction buffer is supplemented with 1 μM cGMP to fully activate the enzyme. 99 μl of diluted enzyme solution is added into each well in a flat bottom 96-well polystyrene plate and then ˜1 μl of test compound dissolved in 100% DMSO is added. The compounds are mixed and pre-incubated with the enzyme for 10 min at room temperature.
The FL-cNMP conversion reaction is initiated by addition of substrate (45 nM final). Enzyme and inhibitor mix (16 μl) and substrate solution (4 μl of 0.225 μM) are combined in a 384-well microtiter plate. The reaction is incubated in the dark at room temperature for 15 min. The reaction is halted by addition of 60 μl of binding reagent (1:400 dilution of IMAP beads in binding buffer supplemented with 1:1800 dilution of antifoam) to each well of the 384-well plate. The plate is incubated at room temperature for 1 hour to allow IMAP binding to proceed to completion, and then placed in an Envision multimode microplate reader (PerkinElmer, Shelton, Conn.) to measure the fluorescence polarization (Δmp).
A decrease in cAMP concentration, measured as decreased Amp, is indicative of inhibition of PDE activity. […] Test well values are normalized to control reactions run on the same plate (values converted to % of control). IC50 values are estimated using nonlinear regression software, fitting a four-parameter one-site dose-response model (XLFit; IDBS, Cambridge, Mass.). Bottom of curve is fixed at 0% of control.
The total fluorescence intensity of each sample well is measured to calculate the average and standard deviation. If the total fluorescence intensity of any sample well is not within the range of Average±3SD, the mp value of that particular well is discarded.

[1] = Pharmacokinetic study in mice (plasma and brain availability); format: in vivo; conditions: 10 mg/kg PO; for blood plasma ratio: brain/plasma, po, 10 mg/kg
Procedure: Pharmacokinetic Study in Mice
Mice are given a single oral dose of the compound of Example 22 (10 mg/kg, PO) and plasma and brain availability are measured (0.25-4 h) using HPLC and LC-MS using methods analogous to those described in Zhao et al., J. Chromatogr. B. Analyt. Technol. Biomed. Life Sci. (2005) 819(1):73-80 and Appels, N. M., et al., Rapid Commun. Mass Spec. 2005. 19(15): p. 2187-92.

[2] = system: cGMP levels in the striatum; assay: Measurements of cGMP in mouse brain in vivo
Procedure: Measurements of cGMP in Mouse Brain in vivo:
Striatum are dissected from the mouse brains and assayed for levels of cGMP. Trichloroacetic acid (TCA) is added to tissue samples for a final concentration of 5% TCA and the tissue is immediately sonicated in solution and stored on ice. The sonicated sample is centrifuged at 15,000×g for 20 min at 4° C. to remove the precipitated protein. To extract the TCA, the sample is washed three times in water saturated ether. The samples are then dried under vacuum (Speedvac, Savant SPD111V) at room temperature and re-suspended in 100 μL EIA buffer. […] Each sample is tested in duplicate in precoated assay plates alongside the 8-point cGMP standard dilutions. In addition, blank, maximum binding (B0) and non-specific binding wells are included. To all wells containing 50 μL sample or standard, equal volumes of AChE-linked cGMP and cGMP antibody are added. The plate is incubated at 4° C. for 18 hours. The wells are then washed 5 times with wash buffer. […] Each data point is converted to % B/B0 (100*[(sample or standard OD−average non-specific binding)/(average B0−average non-specific binding)]). The standards are plotted and fit to a 4-parameter logistic equation (FIG. 1). The concentrations of the samples are interpolated from the standard curve using Microsoft Excel and GraphPad Prizm.

[3] = published standard, 10 mg/kg PO; cited from earlier work

r-hPDE2A, sequence (O00408 whole entry): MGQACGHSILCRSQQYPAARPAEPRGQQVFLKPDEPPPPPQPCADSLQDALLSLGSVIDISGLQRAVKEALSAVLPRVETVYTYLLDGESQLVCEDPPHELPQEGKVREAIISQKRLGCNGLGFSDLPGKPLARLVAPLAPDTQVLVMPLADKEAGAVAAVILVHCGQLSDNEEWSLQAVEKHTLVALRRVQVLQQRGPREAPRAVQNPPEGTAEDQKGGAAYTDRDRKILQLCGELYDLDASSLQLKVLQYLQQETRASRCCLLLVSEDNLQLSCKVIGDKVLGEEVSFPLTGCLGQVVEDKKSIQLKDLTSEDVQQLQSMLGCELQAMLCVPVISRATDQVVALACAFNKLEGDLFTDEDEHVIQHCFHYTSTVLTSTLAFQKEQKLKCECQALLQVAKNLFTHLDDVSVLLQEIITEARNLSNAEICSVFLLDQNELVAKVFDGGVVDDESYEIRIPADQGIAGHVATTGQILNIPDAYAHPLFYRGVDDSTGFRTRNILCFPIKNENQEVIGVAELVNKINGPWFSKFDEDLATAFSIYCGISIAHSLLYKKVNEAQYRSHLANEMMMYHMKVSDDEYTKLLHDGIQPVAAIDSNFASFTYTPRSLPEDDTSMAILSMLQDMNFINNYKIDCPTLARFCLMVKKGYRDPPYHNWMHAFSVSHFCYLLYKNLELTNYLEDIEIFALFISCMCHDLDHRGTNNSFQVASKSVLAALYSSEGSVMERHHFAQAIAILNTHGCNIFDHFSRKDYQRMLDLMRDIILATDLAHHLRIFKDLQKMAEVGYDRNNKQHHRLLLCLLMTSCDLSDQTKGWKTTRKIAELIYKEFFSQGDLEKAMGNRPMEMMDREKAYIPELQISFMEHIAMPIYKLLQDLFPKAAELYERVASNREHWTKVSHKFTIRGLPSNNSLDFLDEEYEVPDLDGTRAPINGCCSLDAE

## CCCCOc1ccc(Cl)c(-n2nc(C)c3c(=O)[nH]c4ccc(OC)nc4c32)c1 [Example 21, 1-(5-Butoxy-2-chlorophenyl)-8-methoxy-3-methyl-1H-pyrazolo[4,3-c][1,5]naphthyridin-4(5H)-one]
r-hPDE2A
  IC50: 0.0094 µM

## CCCCOc1ccc(Cl)c(-n2nc(C)c3c(=O)[nH]c4cccnc4c32)c1 [Example 17, 1-(5-Butoxy-2-chlorophenyl)-3-methyl-1H-pyrazolo[4,3-c][1,5]naphthyridin-4(5H)-one]
r-hPDE2A
  IC50: 0.028 µM

## Cc1nn(-c2cc(Cl)ccc2Cl)c2c1c(=O)[nH]c1ccc(Cl)nc12 [Example 19, 8-Chloro-1-(2,5-dichlorophenyl)-3-methyl-1H-pyrazolo[4,3-c][1,5]naphthyridin-4(5H)-one]
r-hPDE2A
  IC50: 0.073 µM

## CCCCOc1ccc(Cl)c(-n2nc(C)c3c(=O)[nH]c4ccc(Cl)nc4c32)c1 [Example 20, 1-(5-Butoxy-2-chlorophenyl)-8-chloro-3-methyl-1H-pyrazolo[4,3-c][1,5]naphthyridin-4(5H)-one]
r-hPDE2A
  IC50: 0.012 µM

## COc1ccc2[nH]c(=O)c3c(C)nn(-c4cc(OCC5CCC5)ccc4Cl)c3c2n1 [Example 22, 1-(2-Chloro-5-(cyclobutylmethoxy)phenyl)-8-methoxy-3-methyl-1H-pyrazolo[4,3-c][1,5]naphthyridin-4(5H)-one]
[1]; 0.25-4 h, compared to Bay 60-7550
  brain access: good brain access
[1]; mouse, brain
  AUC: 83 ng·h/mL
  AUC(0-t): 50 ng·h/mL
  Cmax: 17 ng/mL
  Tmax: 2 h
[1]; mouse, brain, read-out: E Half-life (converted)
  half-life: 2.4 h
[1]; mouse, read-out: Blood/plasma Ratio of AUC (area)
  blood plasma ratio: 0.9
[1]; mouse, read-out: Blood/plasma Ratio of Cmax (obs)
  blood plasma ratio: 1.4
[1]; mouse, Blood/plasma Ratio of AUC (0-4 hr) (obs area)
  blood plasma ratio: 1.4
r-hPDE2A
  IC50: 0.0059 µM
[2]; 3 mg/kg i.p., 15, 30 or 60 min, compared to Bay 60-7550 (3 mg/kg)
  cGMP levels in the striatum of mice: increases cGMP levels
[2]; inferred from striatal cGMP after 3 mg/kg i.p.
  brain access compared to Bay60-7550: improvement in brain access

## COc1ccc(Cc2nn3c([C@@H](CCCc4ccccc4)[C@@H](C)O)nc(C)c3c(=O)[nH]2)cc1OC [Bay 60-7550]
[3]
  Cmax: 3 ng/mL
  Tmax: 0.25 h
